Test results taken from patent US20050065140A1, “Serotonine reuptake inhibitor” (priority 2001, published 2005).

Experiments:
[1] = biological target: T1, [^3H]paroxetine binding (serotonin reuptake), cerebral cortex membrane preparation (Rattus norvegicus, UniProt P31652); test: Screening test using [^3H]paroxetine binding (Test Example 1); conditions: [^3H]paroxetine 0.15 nM, test concentration not given
T1 construct: 790 μl of the cerebral cortex membrane preparation (150 μg/tube in terms of protein); from tissue; host or cells: rat cerebral cortex membrane preparation
T1 sequence (P31652 whole entry): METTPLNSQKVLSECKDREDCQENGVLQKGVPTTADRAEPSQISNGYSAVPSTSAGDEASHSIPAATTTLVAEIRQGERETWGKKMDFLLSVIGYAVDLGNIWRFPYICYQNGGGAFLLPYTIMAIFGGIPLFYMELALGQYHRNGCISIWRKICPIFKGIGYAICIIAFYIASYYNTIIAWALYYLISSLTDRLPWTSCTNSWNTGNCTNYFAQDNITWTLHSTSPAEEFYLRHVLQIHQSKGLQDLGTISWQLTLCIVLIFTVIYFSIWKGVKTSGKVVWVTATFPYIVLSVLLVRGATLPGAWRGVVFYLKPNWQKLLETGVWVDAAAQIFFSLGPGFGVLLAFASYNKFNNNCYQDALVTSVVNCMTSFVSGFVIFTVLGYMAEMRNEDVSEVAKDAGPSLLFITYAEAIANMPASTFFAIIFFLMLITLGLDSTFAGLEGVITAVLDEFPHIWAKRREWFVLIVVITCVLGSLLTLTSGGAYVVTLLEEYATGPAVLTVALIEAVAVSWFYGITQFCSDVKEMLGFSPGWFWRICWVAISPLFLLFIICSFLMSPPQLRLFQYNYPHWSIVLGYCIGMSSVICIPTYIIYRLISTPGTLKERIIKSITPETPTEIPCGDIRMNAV
Procedure: Screening Test Using [^3H]Paroxetine Binding
The membrane preparation was prepared according to the method^1a) of D'amato et al. In detail, after a male rat was decapitated, the whole brain was immediately removed and the cerebral cortex was dissected therefrom under ice-cooling. A buffer solution (50 mM Tris-HCl (pH=7.4), 120 mM NaCl, 5 mM KCl) was added to the cerebral cortex in an amount of 25 times the wet weight of the cerebral cortex, followed by homogenization in an ice bath by the use of a Teflon-glass homogenizer. The homogenate was centrifuged at 4° C. and 45,000×g for 10 minutes, and the resulting precipitate was dispersed in an ice-cooled buffer solution (50 mM Tris-HCl (pH=7.4), 120 mM NaCl, 5 mM KCl) by the use of Hiscotron™, followed by centrifugation at 4° C. and 45,000×g for 10 minutes. The resulting precipitate was re-suspended and the washing procedure was repeated. The membrane preparation thus obtained was suspended in the same buffer solution as described above, and then subjected to cryopreservation at −80° C.
[^3H]paroxetine binding was measured according to the method^1b) of Habert E et al. In detail, 200 μl of a dilution (final concentration: 0.15 nM) of [^3H]paroxetine with 50 mM Tris-HCl (pH=7.4) buffer containing 120 mM NaCl and 5 mM KCl, 790 μl of the cerebral cortex membrane preparation (150 μg/tube in terms of protein), 10 μl of a solution of a test drug in dimethyl sulfoxide and 1 ml of the above-mentioned buffer solution were mixed to prepare a liquid having a total volume of 2 ml. After this liquid was allowed to react at room temperature for 60 minutes, it was immediately filtered by suction at a low pressure through glass fiber filter. The glass fiber filter was washed 4 times with 4 ml of the same buffer solution as above and then transferred to a glass vial containing 4 ml of ACS-II (Amersham), and the radioactivity remaining on the filter was measured with a liquid scintillation counter.
Non-specific binding of [^3H]paroxetine was defined as the amount of [^3H]paroxetine bound in the presence of 100 μM 5-HT.
Rate of binding inhibition was calculated by the following equation:
Rate of binding inhibition (%)=100−100×{[amount of [^3H]paroxetine bound in the presence of test substance]−[amount of [^3H]paroxetine bound in the presence of 100 μM 5-HT]/[amount of [^3H]paroxetine bound in the absence of test substance]−[amount of [^3H]paroxetine bound in the presence of 100 μM 5-HT]}

[2] = biological target: T2, human 5-HT1A receptor (Homo sapiens, UniProt P08908); test: 5-HT1A receptor stimulation test, [^35S]GTPγS binding (Test Example 3); type: biochemical; conditions: 10^-5 M test substance; membranes of human 5-HT1A/CHO cells; increase in [^35S]GTPγS binding caused by 10 μM 5-HT taken as 100%
T2 construct: expressed in transfected cells; host or cells: CHO cells (human 5-HT1A/CHO), membrane preparation
T2 sequence (P08908 1-422): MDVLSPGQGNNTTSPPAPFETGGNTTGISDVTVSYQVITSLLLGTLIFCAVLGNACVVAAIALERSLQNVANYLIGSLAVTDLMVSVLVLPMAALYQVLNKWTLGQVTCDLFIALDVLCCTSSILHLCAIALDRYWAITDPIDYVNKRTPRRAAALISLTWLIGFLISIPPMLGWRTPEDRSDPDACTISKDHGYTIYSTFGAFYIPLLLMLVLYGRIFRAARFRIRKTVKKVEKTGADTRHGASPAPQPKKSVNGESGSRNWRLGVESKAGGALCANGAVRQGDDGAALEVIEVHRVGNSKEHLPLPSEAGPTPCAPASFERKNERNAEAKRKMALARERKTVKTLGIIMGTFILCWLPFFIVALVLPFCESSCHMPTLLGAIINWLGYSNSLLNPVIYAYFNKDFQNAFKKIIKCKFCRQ
Procedure: 5-HT1A Receptor Stimulation Test
CHO cells expressing human 5-HT1A receptor (human 5-HT1A/CHO) were used in the experiment. The cells were cultured in F12 containing 10% FCS, 500 μg/ml Geneticin and 100 U/ml penicillin-100 μg/ml streptomycin (all available from GIBCO) in a 5% CO2 incubator, and a membrane preparation was prepared according to the method^3)of A. Newman et al. In detail, cells scraped and collected by the use of buffer solution A (20 mM HEPES, 5 mM MgSO4) were homogenized in a Teflon™ homogenizer, followed by centrifugation (50,000×g, 30 min, 4° C.). The precipitate was re-suspended in a suitable volume of buffer solution A and stored at −80° C. until use. The amount of protein in the membrane preparation was determined with Dye Reagent Concentrate (BIO-RAD) by using Albumin Bovine (SIGMA) as a standard substance.
Binding of [^35S]GTPγS to human 5-HT1A receptors was measured by the use of the above-mentioned membrane preparation according to the method^3)of A. Newman et al. In detail, 0.05 nM of [^35S]GTPγS (E.I. du Pont de Nemours & Co. NEN) and a definite amount (about 50 μg/tube) of the membrane preparation were added to buffer solution B (20 mM HEPES, 3 mM MgSO4, 3 μM GDP, 1 mM DTT) containing 10^−5 M of each test substance, and the resulting liquid for reaction having a total volume of 1 ml was incubated at 22° C. for 20 minutes. After completion of the reaction, the reaction mixture was diluted with 5 ml of ice-cooled buffer solution B, and the dilution was immediately filtered by suction through glass fiber filter (Whatman, GF/B) to terminate the reaction. The glass fiber filter was washed twice with the same buffer solution as above and placed in a vial, and 4 ml of ACS-II was added thereto. The radioactivity of [^35S]GTPγS on the filter was measured with a liquid scintillation counter. The amount of [^35S]GTPγS specifically bound was calculated from the amount of [^35S]GTPγS non-specifically bound in the presence of 10 μM of GTPγS (Sigma). The 5-HT1A receptor stimulating activity of each test substance was expressed in terms of the rate of increase in [^35S]GTPγS binding by taking an increase in [^35S]GTPγS binding caused by 10 μM of 5-HT, as 100%.

SMILES | Rate of inhibition of [^3H]paroxetine binding (%) [1] [%] | 5-HT1A receptor stimulating activity (%) [2] [%] | melting point [°C]
COc1ccc(Br)c(CC2CCN(CCC3CCN(CCO)CC3)CC2)c1.Cl.Cl [Example 6, 2-(4-(2-(4-(2-Bromo-5-methoxybenzyl)-1-piperidinyl)ethyl)-1-piperidinyl)ethanol Dihydrochloride] | 87 | 53 | 
CCN[C@H]1CC[C@H](CCN2CCC(Cc3cc(OC)ccc3Br)CC2)CC1.Cl.Cl [Example 38, trans-N-(4-(2-(4-(2-bromo-5-methoxybenzyl)-piperidin-1-yl)ethyl)cyclohexyl)-N-ethylamine Dihydrochloride] | 100 | 48 | 
CO[C@H]1CC[C@H](CCN2CCC(Cc3cc(OC(C)C)ccc3Br)CC2)CC1.Cl [Example 44, trans-4-(2-Bromo-5-isopropoxybenzyl)-1-(2-(4-methoxycyclohexyl)ethyl)piperidine Hydrochloride] | 99 | 51 | 196
CCN([C@H]1CC[C@H](CCCN2CCC(Cc3cc(OC(C)C)ccc3Br)CC2)CC1)S(C)(=O)=O.Cl [Example 46, trans-N-(4-(3-(4-(2-bromo-5-isopropoxy-benzyl)piperidin-1-yl)propyl)cyclohexyl)-N-ethylmethanesulfonamide Hydrochloride] | 100 | 62 | 
COc1ccc(Br)c(CC2CCN(CC[C@H]3CC[C@H](NS(=O)(=O)N(C)C)CC3)CC2)c1.Cl [Example 47, trans-N′-(4-(2-(4-(2-bromo-5-methoxybenzyl)-piperidin-1-yl)ethyl)cyclohexyl)-N,N-dimethylsulfamide hydrochloride] | 100 | 37 | 214
COc1ccc(Br)c(CC2CCN(CC[C@H]3CC[C@H](NC(=O)C(F)(F)F)CC3)CC2)c1.Cl [Example 48, trans-N-(4-(2-(4-(2-bromo-5-methoxybenzyl)-piperidin-1-yl)ethyl)cyclohexyl)-2,2,2-trifluoro-acetamide Hydrochloride] | 99 | 33 | 230
CCN(CC)[C@H]1CC[C@@H](CCCN2CCC(Cc3cc(OC)ccc3Br)CC2)CC1.Cl.Cl [Example 54, cis-N-(4-(3-(4-(2-bromo-5-methoxybenzyl)-piperidin-1-yl)propyl)cyclohexyl)-N,N-diethylamine Dihydrochloride] | 80 | 16 | 
CCN(CCOC)[C@H]1CC[C@H](CCN2CCC(Cc3cc(OC)ccc3Br)CC2)CC1.Cl.Cl [Example 58, trans-N-(4-(2-(4-(2-bromo-5-methoxybenzyl)-piperidin-1-yl)ethyl)cyclohexyl)-N-ethyl-N-(2-methoxyethyl)amine Dihydrochloride] | 100 | 30 | 78
COc1ccc(Br)c(CC2CCN(CC[C@H]3CC[C@@H](CCO)CC3)CC2)c1.Cl [Example 64, cis-2-(4-(2-(4-(2-Bromo-5-methoxybenzyl)-piperidin-1-yl)ethyl)cyclohexyl)ethanol Hydrochloride] | 96 | 19 | 273
CC(C)Oc1ccc(Br)c(CC2CCN(CC3CCc4ccccc4N3)CC2)c1.Cl.Cl (centres unmarked) [Example 65, 2-((4-(2-Bromo-5-isopropoxybenzyl)piperidin-1-yl)methyl)-1,2,3,4-tetrahydroquinoline Dihydrochloride] | 97 | 64 | 
Cl.Cl.Clc1ccc(Br)c(CC2CCN(CC3CCc4ccccc4N3)CC2)c1 (centres unmarked) [Example 67, 2-((4-(2-Bromo-5-chlorobenzyl)piperidin-1-yl)methyl)-1,2,3,4-tetrahydroquinoline Dihydrochloride] | 81 | 74 | 227
COc1ccc(Br)c(CC2CCN(CC3CCc4ccccc4N3)CC2)c1.Cl.Cl (centres unmarked) [Example 69, 2-((4-(2-Bromo-5-methoxybenzyl)piperidin-1-yl)methyl)-1,2,3,4-tetrahydroquinoline Dihydrochloride] | 95 | 63 | 
COc1ccc(Br)c(CC2CCN(CC3CNc4ccccc4C3)CC2)c1.Cl.Cl (centres unmarked) [Example 70, 3-((4-(2-Bromo-5-methoxybenzyl)piperidin-1-yl)methyl)-1,2,3,4-tetrahydroquinoline Dihydrochloride] | 84 | 7 | 
